Assay results published in the NIST ThermoML archive (doi:10.1016/j.jct.2006.08.008).

Tests used:
[1] = mn = molality of the nth substance listed, in mol/kg; conditions: 350 kPa, Liquid
[2] = molar heat capacity at constant pressure; mn = molality of the nth substance listed, in mol/kg; conditions: 350 kPa, Liquid

N[C@@H](CC(=O)O)C(=O)O [L-aminosuccinic acid] + O
Conditions | mass density, m1 = 0.002 [kg/m3] | mass density, m1 = 0.004 [kg/m3] | mass density, m1 = 0.00601 [kg/m3] | mass density, m1 = 0.00801 [kg/m3] | mass density, m1 = 0.01 [kg/m3] | molar heat capacity at constant pressure, m1 = 0.002 [J/K/mol] | molar heat capacity at constant pressure, m1 = 0.004 [J/K/mol] | molar heat capacity at constant pressure, m1 = 0.00601 [J/K/mol] | molar heat capacity at constant pressure, m1 = 0.00801 [J/K/mol] | molar heat capacity at constant pressure, m1 = 0.01 [J/K/mol]
[1], 278.15 K | 1000.34 | 1000.29 | 1000.42 | 1000.62 | 1000.79 | – | – | – | – | –
[1], 283.15 K | 1000.09 | 1000.05 | 1000.2 | 1000.36 | 1000.48 | – | – | – | – | –
[1], 288.15 K | 999.47 | 999.41 | 999.59 | 999.76 | 999.84 | – | – | – | – | –
[1], 298.15 K | 997.39 | 997.34 | 997.51 | 997.69 | 997.73 | – | – | – | – | –
[1], 308.15 K | 994.35 | 994.31 | 994.5 | 994.64 | 994.7 | – | – | – | – | –
[1], 318.15 K | 990.53 | 990.51 | 990.66 | 990.76 | 990.87 | – | – | – | – | –
[1], 328.15 K | 985.99 | 986.02 | 986.15 | 986.25 | 986.33 | – | – | – | – | –
[1], 338.15 K | 980.85 | 980.89 | 981.01 | 981.13 | 981.18 | – | – | – | – | –
[1], 348.15 K | 975.14 | 975.19 | 975.26 | 975.41 | 975.51 | – | – | – | – | –
[1], 358.15 K | 968.93 | 968.98 | 969.03 | 969.18 | 969.3 | – | – | – | – | –
[1], 368.15 K | 962.17 | 962.28 | 962.3 | 962.49 | 962.59 | – | – | – | – | –
[2], 278.15 K | – | – | – | – | – | 75.71 | 75.71 | 75.71 | 75.71 | 75.71
[2], 283.15 K | – | – | – | – | – | 75.54 | 75.54 | 75.54 | 75.54 | 75.54
[2], 288.15 K | – | – | – | – | – | 75.42 | 75.42 | 75.43 | 75.43 | 75.42
[2], 293.15 K | – | – | – | – | – | 75.34 | 75.34 | 75.35 | 75.35 | 75.35
[2], 298.15 K | – | – | – | – | – | 75.29 | 75.29 | 75.3 | 75.3 | 75.3
[2], 303.15 K | – | – | – | – | – | 75.26 | 75.26 | 75.27 | 75.27 | 75.27
[2], 308.15 K | – | – | – | – | – | 75.25 | 75.25 | 75.25 | 75.26 | 75.26
[2], 313.15 K | – | – | – | – | – | 75.25 | 75.25 | 75.25 | 75.26 | 75.26
[2], 318.15 K | – | – | – | – | – | 75.26 | 75.26 | 75.27 | 75.27 | 75.27
[2], 323.15 K | – | – | – | – | – | 75.28 | 75.28 | 75.29 | 75.29 | 75.29
[2], 328.15 K | – | – | – | – | – | 75.31 | 75.32 | 75.32 | 75.33 | 75.33
[2], 333.15 K | – | – | – | – | – | 75.35 | 75.36 | 75.36 | 75.37 | 75.37
[2], 338.15 K | – | – | – | – | – | 75.4 | 75.41 | 75.41 | 75.41 | 75.42
[2], 343.15 K | – | – | – | – | – | 75.46 | 75.47 | 75.47 | 75.47 | 75.48
[2], 348.15 K | – | – | – | – | – | 75.52 | 75.53 | 75.53 | 75.54 | 75.54
[2], 353.15 K | – | – | – | – | – | 75.6 | 75.61 | 75.61 | 75.61 | 75.61
[2], 358.15 K | – | – | – | – | – | 75.68 | 75.69 | 75.69 | 75.69 | 75.69
[2], 363.15 K | – | – | – | – | – | 75.76 | 75.77 | 75.77 | 75.78 | 75.78
[2], 368.15 K | – | – | – | – | – | 75.86 | 75.87 | 75.87 | 75.87 | 75.87
[2], 373.15 K | – | – | – | – | – | 75.96 | 75.97 | 75.97 | 75.97 | 75.98
[2], 378.15 K | – | – | – | – | – | 76.07 | 76.08 | 76.08 | 76.09 | 76.09
[2], 383.15 K | – | – | – | – | – | 76.2 | 76.2 | 76.2 | 76.21 | 76.21
[2], 388.15 K | – | – | – | – | – | 76.33 | 76.34 | 76.33 | 76.34 | 76.34
[2], 393.15 K | – | – | – | – | – | 76.47 | 76.48 | 76.48 | 76.48 | 76.48
